Patent publication US20020122768A1, “Stable radiopharmaceutical compositions and methods for preparation thereof” (priority 2000, published 2002)

What was measured:
Assay type in all cases: physicochemical
[1] = Solution stability of ^90Y-A at room temperature, RCP by radio-HPLC; conditions: for RCP (%) change: ^90Y-A, t = 0 h to last time point
Description: The advantage of using HPLC is that radio-impurities caused by radiolytic degradation can be separated from the radiopharmaceutical under optimized chromatographic conditions.
(§1) The initial RCP of a radiopharmaceutical is largely dependent on radiolabeling conditions such as pH, heating temperature and time. Once a radiopharmaceutical is prepared in high yield, the stability of the radiopharmaceutical composition is measured by the` RCP change of the radiopharmaceutical over a certain period of time.
Analytical Methods. HPLC method 1 used a HP-1100 HPLC system with a UV/visible detector (λ=220 nm), an IN-US radio-detector, and a Zorbax C18 column (4.6 mm×250 mm, 80 Å pore size).
The ITLC method used Gelman Sciences silica-gel ITLC paper strips and 1:1 mixture of acetone and saline as eluant.
(§2) The reaction mixture was heated at 100° C. for 10 min. A sample of the resulting solution was first diluted 20-fold with 2 mM DTPA solution (pH=5), and was then analyzed by HPLC (Method 1, injection volume=1-2 μL) and ITLC. […] The resulting solution was kept at room temperature for 6 days.
as §2, §2
The reaction mixture was heated at 100° C. for 10 min. A sample of the resulting solution was first diluted 20-fold with 2 mM DTPA solution (pH=5), and was then analyzed by HPLC (Method 1, injection volume 1-2 μL) and ITLC. […] The resulting solution was kept at room temperature for 7 days.
(§3) The reaction mixture was heated at 100° C. for 10 min. A sample of the resulting solution was first diluted 20-fold with 2 mM DTPA solution (pH=5), and was then analyzed by HPLC (Method 1, injection volume=1-2 μL) and ITLC. […] The resulting solution was kept at room temperature for 7 days.
as §3, §3

[2] = Solution stability of ^90Y-A at −78° C., RCP by radio-HPLC; conditions: for RCP (%) change: t = 0 h to 72 h
Description: The integrity of a radiopharmaceutical is measured by the radiochemical purity (RCP) of the radiolabeled compound using ITLC or more preferably HPLC. The advantage of using HPLC is that radio-impurities caused by radiolytic degradation can be separated from the radiopharmaceutical under optimized chromatographic conditions. […] The radiopharmaceutical compositions of this invention are effective in maintaining the long-term stability of samples that have been frozen, thawed, and re-tested periodically for 7 days.
as §1, with “of time. For comparison purposes, sodium gentisate or sodium ascorbate was often used as the reference since they have been used in various radiopharmaceutical formulations.” for “of time.”
Analytical Methods. HPLC method 1 used a HP-1100 HPLC system with a UV/visible detector (λ=220 nm), an IN-US radio-detector, and a Zorbax C18 column (4.6 mm×250 mm, 80 Å pore size). The flow rate was 1 mL/min with the mobile phase being isocratic from 0 to 18 min using 87% solvent A (0.025 M ammonium acetate buffer, pH 6.8) and 13% solvent B (acetonitrile), followed by an isocratic wash using 40% of solvent A and 60% solvent B from 19 to 25 min.
The ITLC method used Gelman Sciences silica-gel ITLC paper strips and 1:1 mixture of acetone and saline as eluant. By this method, the radiolabeled compounds migrate to the solvent front while [^90Y]/^177Lu]colloid and [^90Y]/^177Lu]acetate remain at the origin.
^90Y-A was prepared using the procedure described in example 4. The resulting solution was the kept in a dry-ice box (−78° C.) for 3 days. Samples were analyzed at t=0, 24, 48, and 72 h.
To a lead-shielded clean 5 mL vial containing 100 μg of COMPOUND A and 2 mg of 3,4,5-trihydroxybenzoic acid (3,4,5-THBA) dissolved in 0.5 mL of 0.5 M ammonium acetate buffer (pH=8.0) was added 20 μL Of ^90YCl3 solution (˜20 mCi) in 0.05 N HCl. The reaction mixture was heated at 100° C. for 5 min. After cooling to room temperature, 0.5 mL of 3,4,5-THBA solution (20 mg/mL) in 0.5 M ammonium acetate buffer (pH=8.0) was added to the solution above. A sample of the resulting mixture was then diluted 20-fold with GA solution (10 mg/mL, pH=7.4), and analyzed by HPLC (Method 1, injection volume=1 μL) and ITLC. […] The resulting mixture was kept at −78° C. for 3 days. Samples were analyzed at t=0, 1, 2, and 3 days.
(§4) Synthesis of ^90Y-A was carried out according to the procedure described in example 12. After cooling to room temperature, 0.5 mL of 2,3,4-THBA solution (20 mg/mL) in 0.5 M ammonium acetate buffer (pH=8.0) was added to the solution containing ^90Y-A. The resulting mixture was kept at -78 °C for 3 days. Samples were analyzed at t=0, 1, 2, and 3 days.
as §4, with “DSA” for “2,3,4-THBA”, “−78° C.” for “-78 °C”
as §4, with “mL of HABA solution (20” for “mL of 2,3,4-THBA solution (20”, “kept at −78° C. for 3” for “kept at -78 °C for 3”, “3 days. […]” for “3 days.”
To a lead-shielded clean 30 mL vial containing 1000 μg of COMPOUND A and 100 mg of sodium gentisate (GA) dissolved in 5 mL of 0.5 M ammonium acetate buffer (pH=7.5) was added ˜250 μL of ^90YCl3 solution (˜200 mCi) in 0.05 N HCl. The reaction mixture was heated at 100° C. for 15 min. […]

[3] = Solution stability of ^177Lu-C at −78° C., RCP by radio-HPLC; conditions: ^177Lu-C prepared using 2 mg GA, degassed, second stabilizer (20 mg AA, 20 mg DSA, 10 mg 2,3,4-THBA, 10 mg 3,4,5-THBA) added post-labeling
[4] = ^90Y-A (~20 mCi), 10 mg stabilizer, room temperature
[5] = 10 mg stabilizer, room temperature
[6] = ^90Y-A prepared using 2 mg 3,4,5-THBA, second stabilizer (0.5 mL of 20 mg/mL) added after radiolabeling, −78° C.
[7] = ^90Y-A prepared using 2 mg 3,4,5-THBA, second stabilizer added after radiolabeling, −78° C.
[8] = ^90Y-A, 10 mg stabilizer, dry-ice box (−78° C.)
[9] = ^90Y-A, 10 mg stabilizer, −78° C.
[10] = ^90Y-A (~20 mCi), 2 mg stabilizer, room temperature

Compound: 2,4-disulfonatobenzeneamine [DSA]
- RCP (%) t = 0 h [1, 4]: 92.2%
- RCP (%) t = 24 h [1, 4]: 89.3%
- RCP (%) t = 72 h [1, 4]: 82.8%
- RCP (%) t = 148 h [1, 4]: 80.5%
- RCP (%) change [1, 5]: 11.7%
- RCP (%) t = 0 h [2, 6]: 98.5%
- RCP (%) t = 24 h [2, 6]: 98.9%
- RCP (%) t = 48 h [2, 6]: 96.7%
- RCP (%) t = 72 h [2, 6]: 96.7%
- RCP (%) change [2, 7]: 1.8%
- RCP (%) t = 0 h [2, 8]: 94.4%
- RCP (%) t = 24 h [2, 8]: 94.0%
- RCP (%) t = 48 h [2, 8]: 94.1%
- RCP (%) t = 72 h [2, 8]: 94.2%
- RCP (%) change [2, 9]: 0.2%
- RCP (%) t = 1 day [3]: 97.4%

Compound: O=C(O)c1ccc(O)c(O)c1O [2,3,4-THBA, 2,3,4-trihydroxybenzoic acid]
- RCP (%) t = 0 h [2, 6]: 98.1%
- RCP (%) t = 24 h [2, 6]: 99.2%
- RCP (%) t = 48 h [2, 6]: 99.0%
- RCP (%) t = 72 h [2, 6]: 98.2%
- RCP (%) change [2, 7]: 0%
- RCP (%) t = 1 day [3]: 96.6%

Compound: O=C(O)c1cc(O)c(O)c(O)c1 [3,4,5-THBA, 3,4,5-trihydroxybenzoic acid]
- RCP (%) t = 0 h [1, 10]: 95.3%
- RCP (%) t = 24 h [1, 10]: 89.3%
- RCP (%) t = 48 h [1, 10]: 80.6%
- RCP (%) t = 120 h [1, 10]: 74.3%
- RCP (%) t = 144 h [1, 10]: 73.4%
- RCP (%) t = 0 h [1, 4]: 93.3%
- RCP (%) t = 24 h [1, 4]: 92.4%
- RCP (%) t = 72 h [1, 4]: 88%
- RCP (%) t = 148 h [1, 4]: 79.5%
- stabilization compared with GA ([1]; ^90Y-A at room temperature, 2 mg stabilizer): better stabilizers than GA
- RCP (%) change [1, 5]: 13.8%
- RCP (%) t = 0 h [2, 6]: 97.5%
- RCP (%) t = 24 h [2, 6]: 98.4%
- RCP (%) t = 48 h [2, 6]: 98.3%
- RCP (%) t = 72 h [2, 6]: 96.6%
- RCP (%) change [2, 7]: 0.9%
- RCP (%) t = 0 h [2, 8]: 93.3%
- RCP (%) t = 24 h [2, 8]: 92.4%
- RCP (%) t = 48 h [2, 8]: 93.5%
- RCP (%) t = 72 h [2, 8]: 93.5%
- RCP (%) change [2, 9]: 0.2%
- RCP (%) t = 1 day [3]: 97.9%
